Activity calls are given as the source filed them. No cut-off for these calls is given here.
Legend:
[1] = target: Sodium-dependent serotonin transporter (Rattus norvegicus, UniProt P31652); assay: Displacement of [3H]-paroxetine from SERT in rat cerebral cortex incubated for 10 mins by liquid scintillation counting method; assay type: tissue-based
[2] = target: Transporter (Rattus norvegicus, UniProt Q63380); assay: Displacement of [3H]-nisoxetine from NET in rat hippocampal membrane incubated for 8 hrs by liquid scintillation counting method; assay type: cell membranes, Hippocampus
Transporter, sequence (Q63380 whole entry): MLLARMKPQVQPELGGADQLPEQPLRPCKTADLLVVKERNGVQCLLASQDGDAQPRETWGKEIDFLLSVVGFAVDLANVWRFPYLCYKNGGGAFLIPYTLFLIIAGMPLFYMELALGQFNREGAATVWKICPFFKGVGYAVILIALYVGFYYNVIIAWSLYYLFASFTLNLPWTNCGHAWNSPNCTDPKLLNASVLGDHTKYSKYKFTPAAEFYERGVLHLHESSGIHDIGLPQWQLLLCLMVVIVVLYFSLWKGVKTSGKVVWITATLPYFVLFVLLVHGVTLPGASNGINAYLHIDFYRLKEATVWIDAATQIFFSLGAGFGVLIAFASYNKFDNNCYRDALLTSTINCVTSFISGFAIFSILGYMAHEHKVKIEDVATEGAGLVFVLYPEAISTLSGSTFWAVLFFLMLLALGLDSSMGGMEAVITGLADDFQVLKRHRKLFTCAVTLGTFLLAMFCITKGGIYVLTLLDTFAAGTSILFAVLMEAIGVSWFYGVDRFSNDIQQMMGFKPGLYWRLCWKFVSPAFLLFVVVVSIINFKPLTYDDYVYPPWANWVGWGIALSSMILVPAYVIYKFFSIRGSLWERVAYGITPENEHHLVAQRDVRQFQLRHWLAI

[3] = target: 5-hydroxytryptamine receptor 2A (Rattus norvegicus, UniProt P14842); assay: Displacement of [3H]-ketanserin from 5-HT2A in rat cerebral cortex incubated for 15 mins by liquid scintillation counting method; assay type: tissue-based
5-hydroxytryptamine receptor 2A (Rattus norvegicus, UniProt P14842), sequence (P14842 whole entry): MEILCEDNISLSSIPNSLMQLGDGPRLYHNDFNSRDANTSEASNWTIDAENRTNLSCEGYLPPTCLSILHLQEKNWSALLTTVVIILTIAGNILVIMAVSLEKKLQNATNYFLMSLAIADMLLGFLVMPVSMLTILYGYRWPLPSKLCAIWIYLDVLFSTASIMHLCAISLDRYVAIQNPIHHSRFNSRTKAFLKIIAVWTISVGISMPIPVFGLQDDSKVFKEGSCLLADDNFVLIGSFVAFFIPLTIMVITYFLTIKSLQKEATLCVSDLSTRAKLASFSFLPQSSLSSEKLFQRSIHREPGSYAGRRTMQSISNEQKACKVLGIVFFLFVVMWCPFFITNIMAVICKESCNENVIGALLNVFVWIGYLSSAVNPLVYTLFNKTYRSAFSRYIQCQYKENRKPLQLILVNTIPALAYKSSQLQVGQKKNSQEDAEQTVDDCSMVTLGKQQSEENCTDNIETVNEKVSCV

[4] = target: T1, 5-hydroxytryptamine receptor 2C (Rattus norvegicus, UniProt P08909); assay: Displacement of [3H]-mesulergine from 5-HT2C in rat cerebral cortex incubated for 15 mins by liquid scintillation counting method; assay type: tissue-based
T1 sequence (P08909 whole entry): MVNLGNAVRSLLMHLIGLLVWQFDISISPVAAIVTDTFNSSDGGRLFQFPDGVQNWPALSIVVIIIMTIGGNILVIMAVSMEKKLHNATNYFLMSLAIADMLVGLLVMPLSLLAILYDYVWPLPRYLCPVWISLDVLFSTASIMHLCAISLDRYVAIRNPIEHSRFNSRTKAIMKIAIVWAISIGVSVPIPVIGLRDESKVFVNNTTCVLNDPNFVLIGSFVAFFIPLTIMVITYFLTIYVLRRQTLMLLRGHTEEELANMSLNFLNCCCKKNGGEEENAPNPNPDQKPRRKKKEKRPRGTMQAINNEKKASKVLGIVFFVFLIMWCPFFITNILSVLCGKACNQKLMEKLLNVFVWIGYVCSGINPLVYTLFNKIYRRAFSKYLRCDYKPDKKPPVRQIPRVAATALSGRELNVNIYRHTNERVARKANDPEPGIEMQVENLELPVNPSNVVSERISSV

[5] = target: T2, Alpha-1A adrenergic receptor (Rattus norvegicus, UniProt P43140); assay: Displacement of [3H]-prazosin from adrenergic alpha-1 receptor in rat cerebral cortex incubated for 60 mins by liquid scintillation counting method; assay type: toxicity, tissue-based
T2 sequence (P43140 whole entry): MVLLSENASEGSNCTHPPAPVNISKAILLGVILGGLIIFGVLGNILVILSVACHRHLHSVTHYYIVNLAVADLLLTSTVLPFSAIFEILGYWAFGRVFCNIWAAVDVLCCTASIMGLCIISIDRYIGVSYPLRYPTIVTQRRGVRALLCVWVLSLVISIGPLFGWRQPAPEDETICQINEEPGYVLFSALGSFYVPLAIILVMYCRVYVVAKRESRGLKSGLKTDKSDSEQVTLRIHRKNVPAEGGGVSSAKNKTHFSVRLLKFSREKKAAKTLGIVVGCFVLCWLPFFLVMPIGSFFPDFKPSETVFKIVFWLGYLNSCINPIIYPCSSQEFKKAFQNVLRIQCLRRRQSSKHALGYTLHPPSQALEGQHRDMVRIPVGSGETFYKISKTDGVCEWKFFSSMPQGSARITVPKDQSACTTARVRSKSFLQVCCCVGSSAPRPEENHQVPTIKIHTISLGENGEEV

[6] = system: histamine H1 receptor; assay: Displacement of [3H]-pyrilamine from H1 receptor in guinea pig cerebellum membrane incubated for 60 mins by liquid scintillation counting method; assay type: toxicity, cell membranes, Cavia porcellus; settings: probe [3H]-pyrilamine
[7] = target: Voltage-gated inwardly rectifying potassium channel KCNH2 (Homo sapiens, UniProt Q12809); assay: Inhibition of human ERG expressed in HEK293 cells by whole-cell patch clamp method; assay type: toxicity, cell-based
Voltage-gated inwardly rectifying potassium channel KCNH2, sequence (Q12809 whole entry): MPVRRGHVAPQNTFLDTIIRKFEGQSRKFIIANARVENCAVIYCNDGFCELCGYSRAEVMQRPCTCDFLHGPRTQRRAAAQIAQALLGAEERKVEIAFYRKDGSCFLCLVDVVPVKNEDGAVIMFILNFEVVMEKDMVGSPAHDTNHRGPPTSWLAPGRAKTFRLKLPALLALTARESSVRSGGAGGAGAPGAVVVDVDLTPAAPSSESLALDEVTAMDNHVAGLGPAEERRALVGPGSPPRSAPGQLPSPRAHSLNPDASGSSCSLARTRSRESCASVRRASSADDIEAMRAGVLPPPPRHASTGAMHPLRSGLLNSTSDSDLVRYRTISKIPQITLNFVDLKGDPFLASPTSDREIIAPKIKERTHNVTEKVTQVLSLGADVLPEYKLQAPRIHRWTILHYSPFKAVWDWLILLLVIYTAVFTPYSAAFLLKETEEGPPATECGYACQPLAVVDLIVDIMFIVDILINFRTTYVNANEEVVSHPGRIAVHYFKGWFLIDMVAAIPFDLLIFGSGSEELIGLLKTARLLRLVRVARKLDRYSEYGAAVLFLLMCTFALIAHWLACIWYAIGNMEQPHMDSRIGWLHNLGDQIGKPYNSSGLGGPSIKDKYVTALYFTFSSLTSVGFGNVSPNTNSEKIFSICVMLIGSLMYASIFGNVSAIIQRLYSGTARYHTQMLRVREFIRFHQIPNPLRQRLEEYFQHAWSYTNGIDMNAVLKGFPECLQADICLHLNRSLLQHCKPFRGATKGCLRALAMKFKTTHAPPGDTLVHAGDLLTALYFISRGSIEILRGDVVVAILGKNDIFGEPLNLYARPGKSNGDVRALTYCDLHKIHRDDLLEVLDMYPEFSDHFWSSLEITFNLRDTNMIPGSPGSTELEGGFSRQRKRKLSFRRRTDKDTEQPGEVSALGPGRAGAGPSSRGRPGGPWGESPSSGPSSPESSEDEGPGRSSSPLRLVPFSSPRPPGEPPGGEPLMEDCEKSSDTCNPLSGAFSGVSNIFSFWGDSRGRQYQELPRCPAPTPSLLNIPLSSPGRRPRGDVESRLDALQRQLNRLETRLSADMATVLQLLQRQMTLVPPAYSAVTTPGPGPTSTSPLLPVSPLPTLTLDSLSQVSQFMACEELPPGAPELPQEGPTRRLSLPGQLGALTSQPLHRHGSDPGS

[8] = system: Mus musculus; assay: Antidepressant activity in Kunming mouse chronic unpredictable mild stress model assessed as increase in sucrose preference at 20 mg/kg, IG measured after 1 to 3 weeks; assay type: functional, organism-based; settings: time 1-3 weeks
[9] = target: T3, 5-hydroxytryptamine receptor 2C (Homo sapiens) (UniProt P28335); assay: Antagonist activity at 5-HT2C in HEK293 cells at 10 uM incubated for 60 mins by FLIPR assay relative to control; assay type: cell-based; parameters: scale not given: the % may be the effect or the level left; settings: filed as antagonist
T3 sequence (whole entry): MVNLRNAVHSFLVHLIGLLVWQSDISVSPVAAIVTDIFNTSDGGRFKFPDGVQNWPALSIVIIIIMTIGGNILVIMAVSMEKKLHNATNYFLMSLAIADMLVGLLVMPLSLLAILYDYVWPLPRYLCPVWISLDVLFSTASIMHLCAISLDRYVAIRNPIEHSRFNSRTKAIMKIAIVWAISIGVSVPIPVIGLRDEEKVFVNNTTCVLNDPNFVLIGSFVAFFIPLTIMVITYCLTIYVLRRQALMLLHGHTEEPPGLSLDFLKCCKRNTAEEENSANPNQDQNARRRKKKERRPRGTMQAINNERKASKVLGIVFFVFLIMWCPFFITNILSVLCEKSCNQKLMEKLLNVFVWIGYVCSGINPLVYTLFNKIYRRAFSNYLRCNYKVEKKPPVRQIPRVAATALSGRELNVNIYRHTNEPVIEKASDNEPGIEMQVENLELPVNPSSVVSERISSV

[10] = target: 5-hydroxytryptamine receptor 2C (Homo sapiens, UniProt P28335); assay: Antagonist activity at 5-HT2C in HEK293 cells incubated for 60 mins by FLIPR assay; assay type: cell-based
[11] = target: 5-hydroxytryptamine receptor 2A (Homo sapiens, UniProt P28223); assay: Antagonist activity at 5-HT2A in HEK293 cells at 10 uM incubated for 60 mins by FLIPR assay relative to control; assay type: cell-based; parameters: scale not given: the % may be the effect or the level left; settings: filed as antagonist
5-hydroxytryptamine receptor 2A (Homo sapiens, UniProt P28223), sequence (P28223 whole entry): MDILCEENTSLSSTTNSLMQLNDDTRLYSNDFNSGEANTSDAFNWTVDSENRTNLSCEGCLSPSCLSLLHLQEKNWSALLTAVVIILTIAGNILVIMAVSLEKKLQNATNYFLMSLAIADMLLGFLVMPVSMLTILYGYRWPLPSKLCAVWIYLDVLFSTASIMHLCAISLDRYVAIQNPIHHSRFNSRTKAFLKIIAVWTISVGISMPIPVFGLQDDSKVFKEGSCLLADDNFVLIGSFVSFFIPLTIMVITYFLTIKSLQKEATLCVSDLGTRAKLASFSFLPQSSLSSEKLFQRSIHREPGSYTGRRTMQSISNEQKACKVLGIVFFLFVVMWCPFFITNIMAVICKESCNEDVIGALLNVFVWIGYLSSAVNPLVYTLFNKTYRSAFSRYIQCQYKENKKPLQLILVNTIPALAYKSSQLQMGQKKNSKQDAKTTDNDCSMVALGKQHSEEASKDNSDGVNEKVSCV

Sodium-dependent serotonin transporter, sequence (P31652 whole entry): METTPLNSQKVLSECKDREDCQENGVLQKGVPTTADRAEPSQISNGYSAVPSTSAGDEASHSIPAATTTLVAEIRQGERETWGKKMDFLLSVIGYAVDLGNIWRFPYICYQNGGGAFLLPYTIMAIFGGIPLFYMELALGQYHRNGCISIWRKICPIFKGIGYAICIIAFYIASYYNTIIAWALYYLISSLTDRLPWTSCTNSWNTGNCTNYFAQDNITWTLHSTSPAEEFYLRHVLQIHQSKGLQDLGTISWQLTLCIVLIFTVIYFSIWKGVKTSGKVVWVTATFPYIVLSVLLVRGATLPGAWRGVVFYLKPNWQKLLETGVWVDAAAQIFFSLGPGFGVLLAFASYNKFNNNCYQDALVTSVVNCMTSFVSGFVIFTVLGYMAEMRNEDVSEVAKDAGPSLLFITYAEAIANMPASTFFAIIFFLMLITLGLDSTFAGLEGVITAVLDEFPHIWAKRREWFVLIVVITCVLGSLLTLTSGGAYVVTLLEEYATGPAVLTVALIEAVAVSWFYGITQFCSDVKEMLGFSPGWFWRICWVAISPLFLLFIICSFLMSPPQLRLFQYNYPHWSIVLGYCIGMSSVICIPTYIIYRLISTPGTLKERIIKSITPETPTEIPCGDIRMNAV

| Compound | Ki [1] | Ki [2] | further results |
| --- | --- | --- | --- |
| CNCCC(Oc1cccc2c1OCO2)c1cccc(Cl)c1 (centres undefined) | 112 nM | 4.8 nM |  |
| NCCC(Oc1cccc2c1OCO2)c1ccccc1 (centres undefined) | 217 nM | 51 nM |  |
| CNCCC(Oc1cccc2c1OCO2)c1ccccc1 (centres undefined) | 19.8 nM | 4.2 nM | Ki [3]: 156 nM; Ki [4]: 134 nM; Ki [5]: 992 nM; Ki at 60 min [6]: 669 nM; IC50 [7]: 818 nM |
| CNCCC(Oc1cccc2c1OCO2)c1ccc2c(c1)OCO2 (centres undefined) | 32.8 nM | 28.4 nM |  |
| CNCCC(Oc1cccc2c1OCO2)c1ccccc1Cl (centres undefined) | 57.4 nM | 26.6 nM |  |
| CNCCC(Oc1ccc(C(F)(F)F)cc1)c1ccccc1 (centres undefined) |  |  | Activity [8]: inactive |
| CN(C)CCC(Oc1cccc2c1OCO2)c1ccc(Cl)cc1 (centres undefined) | 19.9 nM | 10.4 nM |  |
| CNCCC(Oc1cccc2c1OCO2)c1cccc(OC)c1 (centres undefined) | 48.2 nM | 11.1 nM |  |
| CNCCC(Oc1cccc2c1OCO2)c1ccc(F)cc1 (centres undefined) | 68.6 nM | 5.4 nM |  |
| Cc1ccc(C(CCN(C)C)Oc2cccc3c2OCO3)cc1 (centres undefined) | 69.7 nM | 195 nM |  |
| Cc1cc2c(cc1Cl)N(C(=O)Nc1ccc(Oc3cccnc3C)nc1)CC2 [SB-242084] |  |  | Activity [9]: 98.6%; IC50 [10]: 19.7 nM |
| CNCCC(Oc1cccc2c1OCO2)c1ccccc1C (centres undefined) | 41.2 nM | 13.9 nM |  |
| CN(C)CCC(Oc1cccc2c1OCO2)c1ccccc1F (centres undefined) | 28 nM | 17.2 nM |  |
| COc1cccc(C(CCN(C)C)Oc2cccc3c2OCO3)c1 (centres undefined) | 203 nM | 268 nM |  |
| CNCCC(Oc1cccc2c1OCO2)c1ccccc1OC (centres undefined) | 64.2 nM | 30.2 nM |  |
| CNCCC(Oc1cccc2c1OCO2)c1ccc(F)c(F)c1 (centres undefined) | 96.3 nM | 6.6 nM |  |
| Cc1cccc(C(CCN(C)C)Oc2cccc3c2OCO3)c1 (centres undefined) | 159 nM | 214 nM |  |
| CNCCC(Oc1cccc2c1OCO2)c1ccc(C(F)(F)F)cc1 (centres undefined) | 74.1 nM | 31.1 nM |  |
| CNCCC(Oc1cccc2c1OCO2)c1ccc(Cl)cc1 (centres undefined) | 77.3 nM | 14.8 nM |  |
| COc1ccccc1C(CCN(C)C)Oc1cccc2c1OCO2 (centres undefined) | 221 nM | 253 nM |  |
| O=C(c1ccc(F)cc1)C1CCN(CCn2c(=O)[nH]c3ccccc3c2=O)CC1 |  |  | Activity [11]: 98.3% |
| CN(C)CCC(Oc1cccc2c1OCO2)c1ccccc1Cl (centres undefined) | 29.7 nM | 19.5 nM |  |
| COc1ccc(C(CCN(C)C)Oc2cccc3c2OCO3)cc1 (centres undefined) | 189 nM | 218 nM |  |
